Measurements published in patent US6040293A, “Clavanins” (priority 1997, dated 2000).
Starred links: 1 amine or outer side, 2 acyl side, 3 side chain; linkers in the order of their positions; H or OH if unused. Non-standard residues stand in square brackets, D forms with d. No end group written: not given here. Tyr(Me) = O-methyl tyrosine, COc1ccc(C[C@H](N[*:1])C(=O)[*:2])cc1

Key:
Type in all cases: cell-based
P. aeruginosa [1] = test: standard underlay assay; parameters: dose or concentration left out as unconfirmed; settings: pH 7.4
Protocol: (§1) In more detail, the filtrates (≈3.5 mg of protein by BCA) were concentrated to 2 ml by vacuum centrifugation in a Speed Vac Concentrator (Savant Instruments, Hicksville, N.Y.). Gel permeation chromatography was performed on a 1.2×65 cm BioGel P-10 gel permeation column with 5% acetic acid. Preparative continuous acid-urea PAGE electrophoresis was performed as described by Harwig, S. S. L. et al., Anal Biochem (1993) 208:382. Active fractions were pooled and purified by RP-HPLC a 4.6×250 mm Vydac C18 column, using various linear gradients of acetonitrile in 0.1% trifluoroacetic acid (TFA) or 0.13% heptafluorobutyric acid (HFBA). Throughout this multistep procedure, fractions were lyophilized, concentrated and tested for antimicrobial activity against Listeria monocytogenes strain EGD by a radial diffusion technique described in Lehrer, R. I. et al., J Immunol Methods (1991) 137:167. In these assays, the underlay gels contained 9 mM sodium phosphate and 1 mM sodium citrate buffer, 0.30 mg/ml of trypticase soy broth powder (BBL, Cockeysville, Md.) and 1% agarose at a final pH of 6.5.
[…] The known antimicrobials cecropin A, cecropin B, and cecropin P1 were used as controls.
The standard underlay assay was again conducted supplying both E(3-23) and PG-1 to the underlay. […]

L. monocytogenes EGD = test: radial diffusion assay; settings: for potency relative to Clavanins A and B: L. monocytogenes Strain EGD, radial diffusion (FIG. 5)
Protocol: as §1
(§2) In addition to Cecropin P1 and Magainin 1, the activity of Clavanin A(K) was also tested. Clavanin A(K) is identical to Clavanin A except that all of the histidine residues are replaced by lysine. […] The data are provided as minimal bacteriocidal concentrations expressed in μg/ml which are the X-intercepts of radial diffusion assays performed at pH 6.5 in an underlay that contained 10 mM buffer (9:1 citrate:phosphate), 1% agarose and 0.3 mg trypticase soy powder/ml.
The effect of pH on antimicrobial activity against several organisms was tested in a pH range wherein histidine becomes comparably charged to lysine. FIGS. 6-8 show the results for native or synthetic Clavanin A and synthetic Clavanin A(K) using defensin NP-2 as a control, with respect to L. monocytogenes, E. coli, and C. albicans respectively. The radial diffusion assays were conducted as described in Examples 1 and 3 above.

E. coli ML-35P = test: radial diffusion assay; settings: radial diffusion (FIG. 5)
Protocol: as §1, §2

L. monocytogenes = test: minimal bacteriocidal concentrations under various conditions; settings: pH 5.5
Protocol: (§3) The Tables below show the minimal bacteriocidal concentrations of PG-1, histatin 5, and Clavanin E(3-23) against various organisms under various conditions. E(3-23) was active over a broad pH range and, unlike hisatin 5, it retained activity in the presence of physiological sodium chloride concentrations.
(§4) Low salt conditions (10 mM phosphate)
(§5) High salt conditions (10 mM phosphate+100 mM NaCl)

E. coli = test: as above; parameters: unit not given here; settings: pH 5.5
Protocol: as §3, §4, §5

P. aeruginosa [2] = test: as above; parameters: unit not given here; settings: pH 5.5
Protocol: as §3, §4, §5

C. albicans = test: minimal bacteriocidal concentrations and activity under various conditions; settings: pH 5.5
Protocol: (§6) Finally, the activity of Clavanins A and E as well as E(3-23) and E(6-23) was tested against various target organisms at two pHs with and without salt.
as §3, §4, §5

S. aureus = test system: S. aureus
Protocol: as §1
(§7) Clavanin E(2-23) was tested in the standard underlay assay described in Example 1 herein wherein the underlay contained 10 mM sodium phosphate buffer, pH 7.4 and 1:100 trypticase soy broth with and without 200 mM NaCl. The known antimicrobials cecropin A, cecropin B, and cecropin P1 were used as controls.
(§8) The standard underlay assay was again conducted supplying both E(3-23) and PG-1 to the underlay. In these assays, the underlay contained in addition to 1% agarose, 10 mM sodium phosphate buffer, pH 7.4, 1:100 trypticase soy broth and 200 mM NaCl. The underlays contain PG-1 alone, E(3-23) alone, or combinations of E(3-23) and PG-1.
as §6

Burkaholderia cepacia = test system: Burkaholderia cepacia
Protocol: as §1, §7, §8

E. faecium = test: radial diffusion assay; settings: X-intercept of radial diffusion assay, pH 6.5
Protocol: as §1, §2

[3] = test system: E. coli, L. monocytogenes, P. aeruginosa, S. areus and C. albicans; test: activity against various target organisms at two pHs with and without salt; settings: pH 5.5, 200 mM sodium chloride; most organisms (FIG. 13B)
Protocol: as §6

[4] = high salt (10 mM phosphate+100 mM NaCl)

For “cecropin A (KWKLFKKIEKVGQNIRDGIIKAGPAVAVVGQATQIAK; ends and bridges not checked; UniProt P01507 27-63, looked up) [known antimicrobial used as control]”, the “activity, E(3-23) and cecropins compared” value (P. aeruginosa [1]) was “slightly more active than E(3-23)”.

In the case of defensin NP-2, the “effect of pH of the assay on activity” value (L. monocytogenes EGD; L. monocytogenes, radial diffusion, pH 5.5, 6.5, 7.5 (FIG. 6)) is reported as “no effect”.

For “AFKLL GRIIH HVGNF VY' GFS HVF* (AFKLLGRIIHHVGNFV[Tyr(Me)]GFSHVF-NH2; also: C-terminal modification (*)) [Clavanin D, Y' is o-methyl tyrosine]”, the “potency relative to Clavanins A and B” value (E. coli ML-35P) was 3-5 fold and the “potency relative to Clavanins A and B” value (L. monocytogenes EGD) was 3-5 fold.

For histatin 5 [Hs-5], the minimal bacteriocidal concentration (L. monocytogenes; [4]) was > 500, the minimal bacteriocidal concentration (L. monocytogenes; low salt (10 mM phosphate)) was 11.8 and the minimal bacteriocidal concentration (E. coli; [4]) was 60.6. The minimal bacteriocidal concentration (E. coli; low salt (10 mM phosphate)) was 1.1, the minimal bacteriocidal concentration (P. aeruginosa [2]; [4]) was > 500 and the minimal bacteriocidal concentration (P. aeruginosa [2]; low salt (10 mM phosphate)) was 2.2. For the same compound, the minimal bacteriocidal concentration (C. albicans; [4]) was > 500 and the minimal bacteriocidal concentration (C. albicans; low salt (10 mM phosphate)) was 7.2.

For “VFHLL GKIIH HVGNF VY' GFS HVF* [Clavanin C, Y' is o-methyl tyrosine]”, the “potency relative to Clavanins A and B” value (E. coli ML-35P) was 3-5 fold and the “potency relative to Clavanins A and B” value (L. monocytogenes EGD) was 3-5 fold.

In the case of “KLLGKIIHHVGNFVHGFSHVF-NH2 [Clavanin E(3-23), KLL GKIIH HVGNF VHGFS HVF*]”, the “MBC of E(3-23) in the presence of PG-1” value (S. aureus; pH 7.4) is reported as 2.5 µg/mL, the “minimum bacterial concentration (MBC), agent alone” value (S. aureus; pH 7.4) is reported as 7.5 µg/mL and the “MBC of E(3-23) with PG-1 incorporated” value (Burkaholderia cepacia; pH 7.4) is reported as 2.5 µg/mL. For the same compound, the “MBC, agent alone” value (Burkaholderia cepacia; pH 7.4) was 7.5 µg/mL.

For Cecropin P1, the minimal bacteriocidal concentration (E. faecium) was 6.5 µg/mL and the “activity, E(3-23) and cecropins compared” value (P. aeruginosa [1]) was “slightly more active than E(3-23)”.

In the case of CC(C)C[C@H](NC(=O)[C@H](CCCNC(=N)N)NC(=O)CNC(=O)CNC(=O)[C@@H](N)CCCNC(=N)N)C(=O)N[C@H]1CSSC[C@@H](C(=O)N[C@H](C(=O)NCC(=O)N[C@@H](CCCNC(=N)N)C(N)=O)C(C)C)NC(=O)[C@H](C(C)C)NC(=O)[C@@H]2CSSC[C@H](NC(=O)[C@H](Cc3ccc(O)cc3)NC1=O)C(=O)N[C@@H](CCCNC(=N)N)C(=O)N[C@@H](CCCNC(=N)N)C(=O)N[C@@H](CCCNC(=N)N)C(=O)N[C@@H](Cc1ccccc1)C(=O)N2 [PG-1], the “MBC for PG-1 in the presence of E(3-23)” value (S. aureus; pH 7.4) is reported as 0.07 µg/mL, the “minimum bacterial concentration (MBC), agent alone” value (S. aureus; pH 7.4) is reported as “approximately 0.9 μg/ml” and the minimal bacteriocidal concentration (L. monocytogenes; [4]) is reported as 0.10. The minimal bacteriocidal concentration (L. monocytogenes; low salt (10 mM phosphate)) was 0.10, the “effect of E(3-23) on MBC for PG-1” value (Burkaholderia cepacia; B. cepacia, pH 7.4, 200 mM NaCl, 1 μg/ml E(3-23) present) was “did not effect MBC” and the minimal bacteriocidal concentration (E. coli; [4]) was 0.04. The minimal bacteriocidal concentration (E. coli; low salt (10 mM phosphate)) was 0.05, the minimal bacteriocidal concentration (P. aeruginosa [2]; [4]) was 0.20 and the minimal bacteriocidal concentration (P. aeruginosa [2]; low salt (10 mM phosphate)) was 0.20. The minimal bacteriocidal concentration (C. albicans; [4]) was 0.10 and the minimal bacteriocidal concentration (C. albicans; low salt (10 mM phosphate)) was 0.06.

For “LFKLLGKIIHHVGNFVHGFSHVF (LFKLLGKIIHHVGNFVHGFSHVF) [Clavanin E]”, the “effect of salt on activity” value [3] was “better maintained” and the “effect of salt on activity” value (S. aureus; S. aureus, pH 5.5, 200 mM sodium chloride (FIG. 13B)) was “maintained its activity”.
